According to paper PMC3963473, “Structure–Activity Relationship Studies of Pyrrolone Antimalarial Agents” (Chemmedchem, 2013):
Converted amounts (≈) assume the structure as drawn. Read-outs that look alike come from different tables or passages of the source.

What was measured:
Plasmodium falciparum K1 = assay: microbe, parasite or virus in culture; type: cell-based; conditions: for EC50: Plasmodium falciparum, K1, read-out: EC50 P. falc.; for decrease in EC50 value relative to the unsubstituted analogue 56 / drop / loss in activity (fold): P. falciparum K1; for decrease in EC50 value relative to the unsubstituted analogue 56: relative to 56; for drop / loss in activity (fold): C-ring variants, comparator not stated explicitly
Procedure: (§1) V. Design and Results of the in vitro & in vivo Studies.
A. Drug inhibition of in vitro cultured P. falciparum parasite:2 All in vitro assays were carried out twice independently. In vitro activity against the erythrocytic stages of P. falciparum was determined by using a 3H-hypoxanthine incorporation assay,5-6 using the […]
were dissolved in DMSO at 10 mg/mL and added to parasite cultures incubated in RPMI […]
haematocrit (0.3% parasitaemia). Serial doubling dilutions of each drug were prepared in […]
After 48 h, 50 µL of 3H-hypoxanthine (= 0.5 µCi) was added to each well of the plate. The plates were incubated for an additional 24 h under the same conditions. The plates were then harvested with a Betaplate cell harvester (Wallac, Zurich, Switzerland), and the red blood cells were transferred onto a glass fiber filter and then washed with distilled water. The dried filters were inserted into a plastic foil with 10 mL of scintillation fluid and were counted in a Betaplate™ liquid scintillation counter (Wallac, Zurich, […]

L6 cells = assay: In vitro cytotoxicity assay in L6 cells (Alamar Blue); type: cell-based; conditions: Rattus norvegicus
Procedure: as §1
A. Drug inhibition of in vitro cultured P. falciparum parasite:2 All in vitro assays were carried out twice independently. In vitro activity against the erythrocytic stages of P. […]
B. In vitro cytotoxicity assay:2 Assays were performed in 96-well microtiter plates, each […]
mM) and 10% fetal bovine serum, and 4 x 10^4 L-6 cells (a primary cell line derived from rat skeletal myoblasts). Serial drug dilutions of seven 3-fold dilution steps covering a range […]
After 72 h of incubation the plates were inspected […]
of Alamar Blue was then added to each well and the plates incubated for another 2 h.
Then the plates were read with a Spectramax Gemini XS microplate fluorometer (Molecular Devices Cooperation, Sunnyvale, CA, USA) using an excitation wave length of […]
Data were analysed using the microplate reader software Softmax Pro (Molecular Devices Cooperation, Sunnyvale, CA, USA).

[1] = Aqueous solubility estimated by nephelometry; type: physicochemical; conditions: kinetic from dmso stock, nephelometry, 1% DMSO
Procedure: III. Physicochemical Evaluation […]
Solubility Estimation: Aqueous solubility was estimated by nephelometry.
Compound in DMSO was spiked into either water, pH 6.5 phosphate buffer or 0.01N HCl
(approx. pH 2.0) with the final DMSO concentration being 1%. Samples were then
analyzed by Nephelometry to determine the solubility range as described previously.1

[2] = Table 1, A-ring variants, mammalian L6 cells, mean of two independent assays, read-out: EC50 L6 cells
[3] = Table 1, water, read-out: Solubility water
[4] = aqueous buffer, pH 6.5 phosphate buffer, read-out: Solubility pH 6.5
[5] = simulated gastric fluid, pH 2.0 (0.01N HCl), read-out: Solubility pH 2.0
[6] = Table 2, C-ring variants, L6 cells, mean of two independent assays, read-out: EC50 L6 cells

| SMILES | EC50 (Plasmodium falciparum K1) [µM] | EC50 (L6 cells; [2]) [µM] | melting point [°C] | other results |
| --- | --- | --- | --- | --- |
| CCOC(=O)C1=C(C)N/C(=C/c2cc(C)n(C3CCN(CC4CCN(C)CC4)CC3)c2C)C1=O [Compound 42] | 1.4 | 81 | 230 to 235 |  |
| CCOC(=O)C1=C(C)N/C(=C/c2cc(C)n(C3CCN(CCN4CCOCC4)CC3)c2C)C1=O [Compound 37] | 5.3 | 89 | 115 to 118 |  |
| CCOC(=O)C1=C(C)N/C(=C/c2cc(C)n(C3CCN(Cc4ccc(F)cc4F)CC3)c2C)C1=O [Compound 27] | 0.023 | 23 |  | solubility [1, 3]: > 125 µM |
| CCOC(=O)C1=C(C)N/C(=C/c2cc(C)n(C3CCN(Cc4ccc(F)cc4)CC3)c2C)C1=O [Compound 26] | 0.024 | 51 |  | solubility [1, 3]: > 125 µM |
| CCOC(=O)C1=C(C)N/C(=C/c2cc(C)n(C3CCN(C(C)c4ccc(C(F)(F)F)cc4)CC3)c2C)C1=O (stereo not shown) [Compound 35] | 0.007 | 4.26 |  |  |
| COc1cc([C@@H]2c3cc4c(cc3[C@H](O)[C@H]3COC(=O)[C@H]23)OCO4)cc(OC)c1OC [podophyllotoxin, reference compound] |  |  |  | EC50 (L6 cells; L6, read-out: EC50 L6 cells): 0.009 to 0.022 µM |
| CCOC(=O)C1=C(C)N/C(=C/c2cc(C)n(C3CCN(Cc4cccn4C)CC3)c2C)C1=O [Compound 50] | 0.012 | 3 | 190 to 194 |  |
| CCOC(=O)C1=C(C)N/C(=C/c2cc(C)n(C3CCN(CC(C)(C)C)CC3)c2C)C1=O [Compound 23] | 0.058 | 88 | 139 to 142 |  |
| CCOC(=O)C1=C(C)N/C(=C/c2cc(C)n(C3CCN(CC4CCOCC4)CC3)c2C)C1=O [Compound 41] | 0.11 | 43 | 180 to 183 |  |
| CCOC(=O)C1=C(C)N/C(=C/c2cc(C)n(C3CCN(Cc4nccn4C)CC3)c2C)C1=O [Compound 49] | 1 | 16 | 186 to 189 |  |
| CCOC(=O)C1=C(C)N/C(=C/c2cc(C)n(C3CCN(CCc4ccc(F)cc4)CC3)c2C)C1=O [Compound 34] | 0.096 | 22 |  | solubility [1, 4]: 13 to 26 µM (≈ 6.23 to 12.5 µg/mL); solubility [1, 5]: 52 to 100 µM (≈ 24.9 to 48 µg/mL) |
| CCOC(=O)C1=C(C)N/C(=C/c2cc(C)n(C3CCN(Cc4cc(C)on4)CC3)c2C)C1=O [Compound 47] | 0.1 | 42 | 185 to 188 |  |
| CCOC(=O)C1=C(C)N/C(=C/c2cc(C)n(C3CCN(CCc4ccc(C(F)(F)F)cc4)CC3)c2C)C1=O [Compound 33] | 0.13 | 19 |  |  |
| CCOC(=O)C1=C(C)N/C(=C/c2cc(C)n(C3CCN(CCC(C)C)CC3)c2C)C1=O [Compound 21] | 0.19 | 22 | 158 to 162 |  |
| CCOC(=O)C1=C(C)N/C(=C/c2cc(C)n(C3CCN(Cc4ccn(C)n4)CC3)c2C)C1=O [Compound 45] | 0.15 | 36 | 180 to 184 |  |
| CCOC(=O)C1=C(C)N/C(=C/c2cc(C)n(C3CCN(Cc4ncc[nH]4)CC3)c2C)C1=O [Compound 46] | 1.2 | 28 | 185 to 190 |  |

| SMILES | EC50 (Plasmodium falciparum K1) [µM] | EC50 (L6 cells; [2]) [µM] | melting point [°C] | other results |
| --- | --- | --- | --- | --- |
| CCOC(=O)C1=C(C)N/C(=C/c2cc(C)n(C3CCNCC3)c2C)C1=O [Compound 18] | 12 | > 250 | > 250 |  |
| Cc1cc(/C=C2/Nc3ccn(CCN(C)C)c(=O)c3C2=O)c(C)n1-c1ccccc1C(F)(F)F [Compound 61] | 0.25 |  | 125 to 128 | decrease in EC50 value relative to the unsubstituted analogue 56 (Plasmodium falciparum K1): fivefold; EC50 (L6 cells; [6]): 35 µM |
| CCOC(=O)C1=C(C)N/C(=C/c2cc(C)n(C3CCN(Cc4cnc(N5CCOCC5)nc4)CC3)c2C)C1=O [Compound 53] | 0.075 | 28 | 194 to 199 |  |
| CCOC(=O)C1=C(C)N/C(=C/c2cc(C)n(C3CCN(C)CC3)c2C)C1=O [Compound 19] | 1.4 | 7.8 | 130 to 135 |  |
| CCOC(=O)C1=C(C)N/C(=C/c2cc(C)n(C3CCN(Cc4ccc(N5CCOCC5)nc4)CC3)c2C)C1=O [Compound 52] | 1.5 | 50 | > 280 |  |
| CCOC(=O)C1=C(C)N/C(=C/c2cc(C)n(C3CCN(CCc4ccccc4)CC3)c2C)C1=O [Compound 31] | 0.32 | 107 |  |  |
| CCOC(=O)C1=C(C)N/C(=C/c2cc(C)n(C3CCN(CCc4ccc(OC)cc4)CC3)c2C)C1=O [Compound 32] | 0.083 | 72 |  | solubility [1, 4]: 25 to 51 µM (≈ 12.3 to 25.1 µg/mL); solubility [1, 5]: 100 to 200 µM (≈ 49.2 to 98.3 µg/mL) |
| Cc1cc(/C=C2/Nc3ccn(CCN4CCOCC4)c(=O)c3C2=O)c(C)n1-c1ccccc1C(F)(F)F [Compound 60] | 0.23 |  | 180 to 185 | decrease in EC50 value relative to the unsubstituted analogue 56 (Plasmodium falciparum K1): fivefold; EC50 (L6 cells; [6]): 65 µM |
| CCOC(=O)C1=C(C)N/C(=C/c2cc(C)n(C3CCN(Cc4ccc(C(F)(F)F)cc4)CC3)c2C)C1=O [Compound 28] | 0.002 | 5 |  | solubility [1, 4]: 6 to 12 µM (≈ 3.09 to 6.19 µg/mL); solubility [1, 3]: > 125 µM; solubility [1, 5]: 48 to 97 µM (≈ 24.7 to 50 µg/mL) |
| CCOC(=O)C1=C(C)N/C(=C/c2cc(C)n(C3CCN(Cc4ccccc4C(F)(F)F)CC3)c2C)C1=O [Compound 29] | 0.0005 | 1.7 |  | EC50 (P. falciparum K1) (Plasmodium falciparum K1; values in nM): sub-nanomolar; solubility [1, 3]: > 125 µM |
| CCOC(=O)C1=C(C)N/C(=C/c2cc(C)n(C3CCN(CC4CC4)CC3)c2C)C1=O [Compound 39] | 3.5 | 14 | 142 to 146 |  |
| CCOC(=O)C1=C(C)N/C(=C/c2cc(C)n(C3CCN(Cc4ccc(N5CCOCC5)cc4)CC3)c2C)C1=O [Compound 54] | 2.6 | 53 | > 280 |  |
| Cc1cc(/C=C2/Nc3ccn(Cc4ccccc4)c(=O)c3C2=O)c(C)n1-c1ccccc1C(F)(F)F [Compound 62, (E)-5-Benzyl-2-((2,5-dimethyl-1-(2-(trifluoromethyl)phenyl)-1H-pyrrol-3-yl)methylene)-1H-pyrrolo[3,2-c]pyridine-3,4(2H, 5H)dione] | 0.23 |  | 195 to 200 | drop / loss in activity (fold) (Plasmodium falciparum K1): fivefold; EC50 (L6 cells; [6]): 43 µM |
| CCCN1CCC(n2c(C)cc(/C=C3/NC(C)=C(C(=O)OCC)C3=O)c2C)CC1 [Compound 22] | 1.1 | 6.6 | 145 to 148 |  |
| CCCn1ccc2c(c1=O)C(=O)/C(=C\c1cc(C)n(-c3ccccc3C(F)(F)F)c1C)N2 [Compound 59] | 0.15 |  | 180 to 185 | drop / loss in activity (fold) (Plasmodium falciparum K1): tenfold; EC50 (L6 cells; [6]): 34 µM |
| CCOC(=O)C1=C(C)N/C(=C/c2cc(C)n(C3CCN(CCN4CCCCC4)CC3)c2C)C1=O [Compound 38] | 2.4 | 97 | 122 to 125 |  |
